{"source": "patent US8759390B2", "about": "“Chromene modulators of chemokine receptor activity” (Bristol-Myers Squibb Company, priority 2008, dated 2014)", "note": "Where a name gives a salt, the structure may show the parent alone.", "data": [{"target": "T1, CCR2 (Homo sapiens, UniProt P41597)", "T1 construct": "THP-1 human monocytic leukemic cell line, which expresses endogenous CCR2; endogenous in cells; host or cells: THP-1 human monocytic leukemia cells, or human PBMC / human monocytes", "T1 sequence (P41597 1-360 isoform P41597-2)": "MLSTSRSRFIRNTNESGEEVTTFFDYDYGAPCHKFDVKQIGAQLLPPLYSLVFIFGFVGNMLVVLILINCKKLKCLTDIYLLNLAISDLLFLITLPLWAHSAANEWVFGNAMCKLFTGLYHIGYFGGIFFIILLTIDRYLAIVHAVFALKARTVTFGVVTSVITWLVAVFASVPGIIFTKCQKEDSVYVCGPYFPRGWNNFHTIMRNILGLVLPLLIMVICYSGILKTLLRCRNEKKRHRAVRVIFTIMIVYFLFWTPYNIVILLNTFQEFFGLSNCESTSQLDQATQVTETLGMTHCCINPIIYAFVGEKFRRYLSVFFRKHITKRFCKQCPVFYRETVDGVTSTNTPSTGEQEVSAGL", "experiment": "CCR2 binding (125I-human MCP-1 competition on human PBMC / THP-1 cells)", "details": "n = 1 unless otherwise noted; tested in one of the assays described", "experimental": "Antagonism of MCP-1 Binding to Human PBMC\nMillipore filter plates (#MABVN1250) are treated with 100 μl of binding buffer (0.5% bovine serum albumin, 20 mM HEPES buffer and 5 mM magnesium chloride in RPMI 1640 media) for thirty minutes at room temperature. To measure binding, 50 μl of binding buffer, with or without a known concentration compound, is combined with 50 μl of ^125-I labeled human MCP-1 (to give a final concentration of […] radioligand) and 50 μl of binding buffer containing 5×10^5 cells. Cells used for such binding assays can include human peripheral blood mononuclear cells isolated by Ficoll-Hypaque gradient centrifugation, human monocytes (Weiner et al., J. Immunol. Methods. 1980, 36, 89), or the THP-1 cell line which expresses the endogenous receptor. The mixture of compound, cells and radioligand are incubated at room temperature for thirty minutes. Plates are placed onto a vacuum manifold, vacuum applied, and the plates washed three times with binding buffer containing 0.5M NaCl. The plastic skirt is removed from the plate, the plate allowed to air dry, the wells punched out and counted. The percent inhibition of binding is calculated using the total counts obtained in the absence of any competing compound and the background binding determined by addition of 100 nM MCP-1 in place of the test compound.\nTHP-1 Monocytic Cell Binding: Whole Cell-Based Assay\nThe human CCR2 binding assay was also established with the THP-1 human monocytic leukemic cell line, which expresses endogenous CCR2, using ^125I-human MCP-1 as the tracer ligand. Radioligand competition binding assays were used for assessment of binding affinity of test compounds to the CCR2 receptor. For radioligand competition studies, 100 μl containing 2.5×10^5 THP-1 cells/well (in assay buffer containing 50 mM HEPES, pH7.4, 5mM MgCl2, 1 mM CaCl2 and 0.5% BSA) were added to 96-well assay plates containing the test compounds in 3-fold serial dilution, with final concentrations ranging from 5 μM to […]. Subsequently, 50 μl ^125I-MCP-1 radioligand at a final concentration of 0.2 nM in assay buffer were added to the reaction. After a 90 minute incubation period at room temperature, the binding reaction was terminated by harvesting on GF/B filter plates (PerkinElmer Cat. No. 6005177) followed by washing with ice-cold wash buffer (50 mM HEPES, pH 7.4, 0.1% BSA, 0.5 M NaCl) to remove unbound ligand. After washing, the plate was dried for 45 minutes at 60° C. followed by addition of 40 μl MicroScint 20 scintillation fluid, sealed and analyzed by the Packard TopCount reader. Non-specific binding was determined in the presence of 10 μM (a molar excess of […]) of an in-house CCR2 small molecule antagonist (CCR2 IC50=2 nM). Specific binding of ^125I-MCP-1 was calculated as the difference between total and non-specific binding. The competition data was plotted as a percentage inhibition of radioligand specific bound in the absence of test compound (percent of total signal). After correcting for non-specific binding, IC50 values were determined The IC50 is defined as the concentration of test compound required to reduce ^125I-MCP-1 specific binding by 50% and was calculated using the four parameter logistic equation to fit the normalized data.", "units": {"Ki": "nM"}, "values": [{"compound": "O=C(O)C1=Cc2ccccc2OC1c1ccccn1", "note": "(racemic) [Example 5-21, 2-(pyridin-2-yl)-2H-chromene-3-carboxylic acid]", "Ki": 1400}, {"compound": "O=C(O)C1=Cc2ccccc2OC1c1cccc(Cl)c1", "note": "(racemic) [Example 1, 2-(3-chlorophenyl)-2H-chromene-3-carboxylic acid]", "Ki": 2000}, {"compound": "O=C(O)C1=Cc2ccccc2OC1c1cnc2ccccc2c1", "note": "(racemic) [Example 5-23, 2-(quinolin-3-yl)-2H-chromene-3-carboxylic acid]", "Ki": 4300}, {"compound": "O=C(O)C1=Cc2ccccc2OC1c1ccc(F)c(F)c1", "note": "(racemic) [Example 5-11, 2-(3,4-difluorophenyl)-2H-chromene-3-carboxylic acid]", "Ki": 8600}, {"compound": "O=C(O)C1=Cc2ccccc2OC1c1cccc2ccccc12", "note": "(racemic) [Example 5-5, 2-(naphthalen-1-yl)-2H-chromene-3-carboxylic acid]", "Ki": 1700}, {"compound": "O=C(O)C1=Cc2ccccc2OC1c1cccc(Br)c1", "note": "(racemic) [Example 5-16, 2-(3-bromophenyl)-2H-chromene-3-carboxylic acid]", "Ki": 1700}, {"compound": "O=C(O)C1=Cc2ccccc2OC1c1ccc(Br)c(Br)c1", "note": "(racemic) [Example 5-17, 2-(3,4-dibromophenyl)-2H-chromene-3-carboxylic acid]", "Ki": 85}, {"compound": "O=C(O)C1=Cc2ccccc2OC1c1ccc(Cl)c(F)c1", "note": "(racemic) [Example 5-7, 2-(3-fluoro-4-chlorophenyl)-2H-chromene-3-carboxylic acid]", "Ki": 290}, {"compound": "O=C(O)C1=Cc2ccc(Br)cc2OC1c1ccc(Cl)c(Cl)c1", "note": "(racemic) [Example 9-5, 2-(3,4-dichlorophenyl)-7-bromo-2H-chromene-3-carboxylic acid]", "Ki": 720}, {"compound": "O=C(O)C1=Cc2ccccc2OC1c1ccc(Cl)nc1", "note": "(racemic) [Example 7-2, 2-(6-chloropyridin-3-yl)-2H-chromene-3-carboxylic acid]", "Ki": 4500}, {"compound": "O=C(O)C1=Cc2ccccc2OC1c1ccncc1", "note": "(racemic) [Example 5-3, 2-(pyridin-4-yl)-2H-chromene-3-carboxylic acid trifluoroacetic acid salt]", "Ki": 1800}, {"compound": "O=C(O)C1=Cc2ccccc2OC1c1cnc(Cl)c(Cl)c1", "note": "(racemic) [Example 7-3, 2-(5,6-dichloropyridin-3-yl)-2H-chromene-3-carboxylic acid]", "Ki": 570}, {"compound": "COc1ccc2c(c1)C=C(C(=O)O)C(c1ccc(Cl)c(Cl)c1)O2", "note": "(racemic) [Example 8, 2-(3,4-dichlorophenyl)-6-methoxy-2H-chromene-3-carboxylic acid]", "Ki": 360}, {"compound": "O=C(O)C1=Cc2ccccc2OC1c1ccc2c(c1)OCO2", "note": "(racemic) [Example 3, 2-(benzo[d][1,3]dioxol-5-yl)-2H-chromene-3-carboxylic acid]", "Ki": 1100}, {"compound": "O=C(O)C1=Cc2ccccc2OC1c1ccc(Cl)c([N+](=O)[O-])c1", "note": "(racemic) [Example 5-13, 2-(3-nitro-4-chlorophenyl)-2H-chromene-3-carboxylic acid]", "Ki": 230}, {"compound": "O=C(O)C1=Cc2ccccc2OC1c1ccc(C(F)(F)F)cc1", "note": "(racemic) [Example 5-10, 2-(4-trifluoromethylphenyl)-2H-chromene-3-carboxylic acid]", "Ki": 920}, {"compound": "O=C(O)C1=Cc2ccccc2OC1c1ccc(C(F)(F)F)c(F)c1", "note": "(racemic) [Example 5-18, 2-(3-fluoro-4-trifluoromethylphenyl)-2H-chromene-3-carboxylic acid]", "Ki": 720}, {"compound": "O=C(O)C1=Cc2ccccc2OC1c1ccc(Cl)c(Cl)c1", "note": "(single isomer, unassigned; (-)) [Example 6a, (−)-2-(3,4-dichlorophenyl)-2H-chromene-3-carboxylic acid]", "Ki": 80}, {"compound": "O=C(O)C1=Cc2ccccc2OC1c1cccc(C(F)(F)F)c1", "note": "(racemic) [Example 5-9, 2-(3-trifluoromethylphenyl)-2H-chromene-3-carboxylic acid]", "Ki": 1600}, {"compound": "O=C(O)C1=Cc2ccccc2OC1c1cccc(F)c1", "note": "(racemic) [Example 5-6, 2-(3-fluorophenyl)-2H-chromene-3-carboxylic acid]", "Ki": 5700}, {"compound": "O=C(O)C1=Cc2cc(Cl)ccc2OC1c1ccc(Cl)c(Cl)c1", "note": "(racemic) [Example 9-2, 2-(3,4-dichlorophenyl)-6-chloro-2H-chromene-3-carboxylic acid]", "Ki": 300}, {"compound": "O=C(O)C1=Cc2ccc(F)cc2OC1c1ccc(Cl)c(Cl)c1", "note": "(racemic) [Example 9-1, 2-(3,4-dichlorophenyl)-7-fluoro-2H-chromene-3-carboxylic acid]", "Ki": 350}, {"compound": "COc1cc(C2Oc3ccccc3C=C2C(=O)O)ccc1Cl", "note": "(racemic) [Example 7-1, 2-(3-methoxy-4-chlorophenyl)-2H-chromene-3-carboxylic acid]", "Ki": 2900}, {"compound": "CCC1(c2ccc(Cl)c(Cl)c2)Oc2ccccc2C=C1C(=O)O", "note": "(racemic) [Example 4-2, 2-(3,4-dichlorophenyl)-2-ethyl-2H-chromene-3-carboxylic acid]", "Ki": 1200}, {"compound": "O=C(O)C1=Cc2cc(F)ccc2OC1c1ccc(Cl)c(Cl)c1", "note": "(racemic) [Example 9-4, 2-(3,4-dichlorophenyl)-6-fluoro-2H-chromene-3-carboxylic acid]", "Ki": 340}, {"compound": "O=C(O)C1=Cc2ccccc2OC1c1ccc(Cl)c(Br)c1", "note": "(racemic) [Example 7-4, 2-(3-bromo-4-chlorophenyl)-2H-chromene-3-carboxylic acid]", "Ki": 170}, {"compound": "O=C(O)C1=Cc2ccccc2OC1c1cccc(Cl)c1Cl", "note": "(racemic) [Example 5-26, 2-(2,3-dichlorophenyl)-2H-chromene-3-carboxylic acid]", "Ki": 2600}, {"compound": "COc1ccc2c(c1)OC(c1ccc(Cl)c(Cl)c1)C(C(=O)O)=C2", "note": "(racemic) [Example 9-6, 2-(3,4-dichlorophenyl)-7-methoxy-2H-chromene-3-carboxylic acid]", "Ki": 300}]}]}
